Data as given in patent publication US8541460B2, “PDK-1/Akt signaling inhibitors” (The Ohio State University, priority 2003, dated 2013).

Tests used:
K-562 = test: NCI DTP cell line screen (SRB), Leukemia; type: cell-based
Procedure: (§1) Screening of compounds 70 and 71 against several cancer cell lines The human tumor cell lines of the cancer screening panel are grown in RPMI 1640 medium containing 5% fetal bovine serum and 2 mM L-glutamine. For a typical screening experiment, cells are inoculated into 96 well microtiter plates in 100 μL at plating densities ranging from 5,000 to 40,000 cells/well depending on the doubling time of individual cell lines. After cell inoculation, the microtiter plates are incubated at 37° C., 5% CO2, 95% air and 100% relative humidity for 24 h prior to addition of experimental drugs.
(§2) After 24 h, two plates of each cell line are fixed in situ with TCA, to represent a measurement of the cell population for each cell line at the time of drug addition (Tz). Experimental drugs are solubilized in dimethyl sulfoxide at 400-fold the desired final maximum test concentration and stored frozen prior to use. At the time of drug addition, an aliquot of frozen concentrate is thawed and diluted to twice the desired final maximum test concentration with complete medium containing 50 μg/ml gentamicin. Additional four, 10-fold or ½ log serial dilutions are made to provide a total of five drug concentrations plus control. Aliquots of 100 μl of these different drug dilutions are added to the appropriate microtiter wells already containing 100 μl of medium, resulting in the required final drug concentrations.
(§3) Following drug addition, the plates are incubated for an additional 48 h at 37° C., 5% CO2, 95% air, and 100% relative humidity. For adherent cells, the assay is terminated by the addition of cold TCA. Cells are fixed in situ by the gentle addition of 50 μl of cold 50% (w/v) TCA (final concentration, 10% TCA) and incubated for 60 minutes at 4° C. The supernatant is discarded, and the plates are washed five times with tap water and air dried. Sulforhodamine B (SRB) solution (100 μl) at 0.4% (w/v) in 1% acetic acid is added to each well, and plates are incubated for 10 minutes at room temperature. After staining, unbound dye is removed by washing five times with 1% acetic acid and the plates are air dried. Bound stain is subsequently solubilized with 10 mM trizma base, and the absorbance is read on an automated plate reader at a wavelength of 515 nm. For suspension cells, the methodology is the same except that the assay is terminated by fixing settled cells at the bottom of the wells by gently adding 50 μl of 80% TCA (final concentration, 16% TCA). Using the seven absorbance measurements [time zero, (Tz), control growth, (C), and test growth in the presence of drug at the five concentration levels (Ti)], the percentage growth is calculated at each of the drug concentrations levels. Percentage growth inhibition is calculated as: [(Ti−Tz)/(C−Tz)]×100 for concentrations for which Ti>/=Tz [(Ti−Tz)/Tz]×100 for concentrations for which Ti<Tz
(§4) Three dose response parameters are calculated for each experimental agent. […] The drug concentration resulting in total growth inhibition (TGI) is calculated from Ti=Tz. […] Values are calculated for each of these three parameters if the level of activity is reached; however, if the effect is not reached or is exceeded, the value for that parameter is expressed as greater or less than the maximum or minimum concentration tested.
(§5) The methods described were used to test compounds 70 and 71 on a panel of sixty cell lines under a screening service provided by the Developmental Therapeutics Program at the National Institutes of Health. Shown in FIG. 1C are 1, RPMI-8226 leukemia cells; 2; NCI-H322M non-small cell lung cancer cells; 3, HT29 colon cancer cells; 4, U251 CNS cancer cells; 5, SK-MEL-28 melanoma cancer cells; 6, SK-OV-3 ovarian cancer cells; 7, RXF 393 renal cancer cells; 8, PC-3 prostate cancer cells; 9, MDA-MB-231 breast cancer cells.

MOLT-4 = test: NCI DTP cell line screen (SRB), Leukemia; type: cell-based
Procedure: as §1, §2, §3, §4, §5

SR = test: NCI DTP cell line screen (SRB), Leukemia; type: cell-based
Procedure: as §1, §2, §3, §4, §5

SNB-19 = test: NCI DTP cell line screen (SRB), CNS Cancer; type: cell-based, human
Procedure: as §1, §2, §3, §4, §5

U251 = test: NCI DTP cell line screen (SRB), CNS Cancer; type: cell-based, human
Procedure: as §1, §2, §3, §4, §5

MCF7 = test: NCI DTP cell line screen (SRB), Breast Cancer; type: cell-based, human; conditions: for TGI: in M (unit assumed)
Procedure: as §1, §2, §3, §4, §5

MDA-MB-435 = test: NCI DTP cell line screen (SRB), Breast Cancer; type: cell-based, human; conditions: for TGI: in M (unit assumed)
Procedure: as §1, §2, §3, §4, §5

[1] = read-out: LC50 (the source's name)

## NCC(=O)Nc1ccc(-n2nc(C(F)(F)F)cc2-c2ccc3c(ccc4ccccc43)c2)cc1 [Compound 70, 2-Amino-N-{4-[5-(2-phenanthrenyl)-3-(trifluoromethyl)-1H-pyrazol-1-yl]-phenyl}-acetamide]
K-562
  TGI: 3.34E−06
K-562; Log10 Concentration −4.0
  Percent Growth: −17%
K-562; Log10 Concentration −5.0
  Percent Growth: −30%
K-562; Log10 Concentration −6.0
  Percent Growth: 33%
K-562; Log10 Concentration −7.0
  Percent Growth: 62%
K-562; Log10 Concentration −8.0
  Percent Growth: 97%
MOLT-4
  TGI: 3.10E−06
MOLT-4; Log10 Concentration −4.0
  Percent Growth: −6%
MOLT-4; Log10 Concentration −5.0
  Percent Growth: −42%
MOLT-4; Log10 Concentration −6.0
  Percent Growth: 41%
MOLT-4; Log10 Concentration −7.0
  Percent Growth: 87%
MOLT-4; Log10 Concentration −8.0
  Percent Growth: 89%
SR
  TGI: 4.17E−06
SR; Log10 Concentration −5.0
  Percent Growth: −27%
SR; Log10 Concentration −6.0
  Percent Growth: 45%
SR; Log10 Concentration −7.0
  Percent Growth: 80%
SR; Log10 Concentration −8.0
  Percent Growth: 84%
SNB-19
  TGI: 3.15E−06
SNB-19; Log10 Concentration −4.0
  Percent Growth: −39%
SNB-19; Log10 Concentration −5.0
  Percent Growth: −59%
SNB-19; Log10 Concentration −6.0
  Percent Growth: 59%
SNB-19; Log10 Concentration −7.0
  Percent Growth: 94%
SNB-19; Log10 Concentration −8.0
  Percent Growth: 87%
U251
  TGI: 2.64E−06
U251; Log10 Concentration −4.0
  Percent Growth: −18%
U251; Log10 Concentration −5.0
  Percent Growth: −63%
U251; Log10 Concentration −6.0
  Percent Growth: 46%
U251; Log10 Concentration −7.0
  Percent Growth: 82%
U251; Log10 Concentration −8.0
  Percent Growth: 100%
MCF7; MCF7, Log10 Concentration −4.0
  Percent Growth: −44%
MCF7; MCF7, Log10 Concentration −5.0
  Percent Growth: −57%
MCF7; MCF7, Log10 Concentration −6.0
  Percent Growth: 43%
MCF7; MCF7, Log10 Concentration −7.0
  Percent Growth: 89%
MCF7; MCF7, Log10 Concentration −8.0
  Percent Growth: 91%
MCF7; MCF7
  TGI: 2.72E−06
MDA-MB-435; Log10 Concentration −4.0
  Percent Growth: −14%
MDA-MB-435; Log10 Concentration −5.0
  Percent Growth: −69%
MDA-MB-435; Log10 Concentration −6.0
  Percent Growth: 68%
MDA-MB-435; Log10 Concentration −7.0
  Percent Growth: 98%
MDA-MB-435; Log10 Concentration −8.0
  Percent Growth: 103%
MDA-MB-435
  TGI: 3.14E−06

## N=C(N)Nc1ccc(-n2nc(C(F)(F)F)cc2-c2ccc3c(ccc4ccccc43)c2)cc1 [Compound 71, 4-[5-(2-Phenanthrenyl)-3-(trifluoromethyl)-1H-pyrazol-1-yl]-phenyl-guanidine]
K-562
  GI50: 0.326 µM
  TGI: 1.52E−06
K-562; Log10 Concentration −4.0
  Mean Optical Densities: 0.119
  Percent Growth: −60%
K-562; Log10 Concentration −5.0
  Mean Optical Densities: 0.126
  Percent Growth: −58%
K-562; Log10 Concentration −6.0
  Mean Optical Densities: 0.438
  Percent Growth: 13%
K-562; Log10 Concentration −7.0
  Mean Optical Densities: 1.283
  Percent Growth: 89%
K-562; Log10 Concentration −8.0
  Mean Optical Densities: 1.338
  Percent Growth: 94%
K-562; [1]
  CC50: 7.77 µM
MOLT-4
  GI50: 0.233 µM
  TGI: 1.98E−06
MOLT-4; Log10 Concentration −4.0
  Mean Optical Densities: 0.143
  Percent Growth: −54%
MOLT-4; Log10 Concentration −5.0
  Mean Optical Densities: 0.143
  Percent Growth: −54%
MOLT-4; Log10 Concentration −6.0
  Mean Optical Densities: 0.461
  Percent Growth: 23%
MOLT-4; Log10 Concentration −7.0
  Mean Optical Densities: 0.736
  Percent Growth: 66%
MOLT-4; Log10 Concentration −8.0
  Mean Optical Densities: 0.833
  Percent Growth: 81%
MOLT-4; [1]
  CC50: 8.75 µM
SR
  GI50: 0.0386 µM
  TGI: 3.79E−07
SR; Log10 Concentration −4.0
  Mean Optical Densities: 0.287
  Percent Growth: −21%
SR; Log10 Concentration −5.0
  Mean Optical Densities: 0.234
  Percent Growth: −36%
SR; Log10 Concentration −6.0
  Mean Optical Densities: 0.254
  Percent Growth: −30%
SR; Log10 Concentration −7.0
  Mean Optical Densities: 0.583
  Percent Growth: 42%
SR; Log10 Concentration −8.0
  Mean Optical Densities: 0.688
  Percent Growth: 62%
SR; [1]
  CC50: > 100 µM
MCF7
  GI50: 1.82 µM
MCF7; Log10 Concentration −4.0
  Mean Optical Densities: 0.229
  Percent Growth: −49%
MCF7; Log10 Concentration −5.0
  Mean Optical Densities: 0.073
  Percent Growth: −84%
MCF7; Log10 Concentration −6.0
  Mean Optical Densities: 1.507
  Percent Growth: 97%
MCF7; Log10 Concentration −7.0
  Mean Optical Densities: 1.340
  Percent Growth: 82%
MCF7; Log10 Concentration −8.0
  Mean Optical Densities: 1.467
  Percent Growth: 93%
MCF7; MCP7
  TGI: 3.44E−06
MDA-MB-435
  GI50: 1.7 µM
  TGI: 3.07E−06
MDA-MB-435; Log10 Concentration −4.0
  Mean Optical Densities: 0.295
  Percent Growth: −27%
MDA-MB-435; Log10 Concentration −5.0
  Mean Optical Densities: −0.073
  Percent Growth: −100%
MDA-MB-435; Log10 Concentration −6.0
  Mean Optical Densities: 1.444
  Percent Growth: 95%
MDA-MB-435; Log10 Concentration −7.0
  Mean Optical Densities: 1.382
  Percent Growth: 89%
MDA-MB-435; Log10 Concentration −8.0
  Mean Optical Densities: 1.376
  Percent Growth: 89%
